Measurements published in patent publication US12268657B2, “Coenzyme Q10 composition, and preparation method and application thereof in cardio-protection” (Guangdong Runhe Biotechnology Co., Ltd, priority 2023, dated 2025).

Tested on: myocardial ischemia rat models
Assay: Protective effect on myocardial ischemia in rat model (coronary artery clamping)
Format: in vivo
Details: SD rats, 0.2 mg/kg per day for one week
Description: Specifically, several SD rats weighing about 200 g were selected to prepare myocardial ischemia rat models by a coronary artery clamping method. The successful-established model rats were uniformly divided into a blank group, a control group, and a treatment group, with 8 rats in each group. The blank group was not treated with any drug during the observation period, the control group was administered with 0.2 mg/kg of coenzyme Q10 per day for one week, and the treatment group was administered with 0.2 mg/kg of the coenzyme Q10 slow-release drug per day for one week. After the one-week administration, the myocardial infarction area, and superoxide dismutase (SOD) and malondialdehyde (MDA) content in the serum of the rats after artery ligation were recorded, and the results were shown in the table below. […] Moreover, after treatment with the slow-release drug, the activity of SOD was improved, and the generation of MDA was inhibited, which was favorable to reducing the occurrence of infarction.

COC1=C(OC)C(=O)C(C/C=C(\C)CC/C=C(\C)CC/C=C(\C)CC/C=C(\C)CC/C=C(\C)CC/C=C(\C)CC/C=C(\C)CC/C=C(\C)CC/C=C(\C)CCC=C(C)C)=C(C)C1=O [coenzyme Q10, Coenzyme Q10]
Myocardial infarction area (%): 14.69 ± 1.14% | MDA (serum): 6.57 ± 0.68 nmol/mL | SOD (NU/mL) (serum): 220.34 ± 8.56 NU/mL
